Data published in the supplement of paper PMC10307832.

Assays:
Assay in all cases: relative viability (nuclei count vs DMSO), 5 days (fraction); higher = more cells survive
[1] = compound: COC1=CC=C(C=C1)CN2C=CC3=C2C=C(C=C3)C(=O)NO + NC(=O)Nc1cc(-c2cccc(F)c2)sc1C(=O)N[C@H]1CCCNC1 [AZD7762] (partner 0.2 µM)
Outline: (§1)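 For relative viability, nuclei counts in treated wells were divided by those in vehicle wells. Lung cancer cell lines had been pin-tool dosed in 1536-well plates the day after seeding and cultured for 5 days, then fixed and stained in one step (final 0.05% Triton X-100, 1% formaldehyde, 1 ug/ml Hoechst) and imaged at 4×. Doses were one drug alone or a fixed anchor-drug dose plus five library-drug doses (not always all listed) in √10 steps, and values are duplicate-plate medians.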

[2] = compound: C[C@]1(c2nc3c(C(N)=O)cccc3[nH]2)CCCN1 [Veliparib] + Nc1ncn([C@H]2C[C@H](O)[C@@H](CO)O2)c(=O)n1 [Decitabine] (partner 2 µM)
Outline: as §1

[3] = compound: COC1=CC=C(C=C1)CN2C=CC3=C2C=C(C=C3)C(=O)NO + CC(=O)c1c(C)c2cnc(Nc3ccc(N4CCNCC4)cn3)nc2n(C2CCCC2)c1=O [Palbociclib] (partner 0.5 µM)
Outline: as §1

[4] = compound: C[C@]1(c2nc3c(C(N)=O)cccc3[nH]2)CCCN1 [Veliparib] + C[C@@H](Oc1cc(-c2cnn(C3CCNCC3)c2)cnc1N)c1c(Cl)ccc(F)c1Cl [Crizotinib] (partner 1 µM)
Outline: as §1

Cell Line	relative viability ([1]; first compound 0.08 µM)	relative viability ([1]; first compound 0.253 µM)	relative viability ([1]; first compound 0.8 µM)	relative viability ([1]; first compound 2.53 µM)	relative viability ([1]; first compound 8 µM)	relative viability ([2]; first compound 0.02 µM)	relative viability ([2]; first compound 0.06325 µM)	relative viability ([2]; first compound 0.2 µM)	relative viability ([2]; first compound 0.6325 µM)	relative viability ([2]; first compound 2 µM)	relative viability ([3]; first compound 0.08 µM)	relative viability ([3]; first compound 0.253 µM)	relative viability ([3]; first compound 0.8 µM)	relative viability ([3]; first compound 2.53 µM)	relative viability ([3]; first compound 8 µM)	relative viability ([4]; first compound 0.02 µM)	relative viability ([4]; first compound 0.06325 µM)	relative viability ([4]; first compound 0.2 µM)	relative viability ([4]; first compound 0.6325 µM)	relative viability ([4]; first compound 2 µM)
NCI-H2342	0.475	0.44	0.468	0.379	0.389	0.729	0.758	0.679	0.718	0.725	0.467	0.586	0.52	0.538	0.559	–	–	–	–	–
HOP-62	0.358	0.691	0.72	0.554	0.484	0.221	0.198	0.164	0.197	0.251	0.321	0.442	0.431	0.413	0.493	0.981	0.795	0.836	0.866	0.933
BEN	0.628	0.507	0.628	0.594	0.549	0.572	0.581	0.613	0.565	0.624	0.468	0.466	0.487	0.52	0.489	0.735	0.97	1.01	0.783	0.884
NCI-H647	–	0.437	0.495	0.361	0.369	0.376	0.346	0.298	0.299	0.26	0.441	0.364	0.379	0.494	0.438	1.07	1.01	1.23	1.03	0.907
NCI-H2085	0.971	0.953	1.07	1	0.942	0.519	0.453	0.486	0.48	0.498	0.492	0.452	0.495	0.464	0.538	0.9	0.805	0.702	0.738	0.809
NCI-H2347	0.598	0.748	0.967	0.732	0.677	0.625	0.556	0.616	0.582	0.587	0.422	0.445	0.472	0.441	0.428	0.798	0.839	0.678	0.652	0.616
NCI-H2228	–	–	–	–	–	–	–	–	–	–	0.544	0.825	0.904	0.685	0.573	0.436	0.405	0.457	0.447	0.475
NCI-H2009	–	–	–	–	–	0.344	0.37	0.366	0.329	0.361	0.211	0.215	0.243	0.226	0.162	1.1	0.934	1.05	1.03	1.03
IA-LM	–	–	–	–	–	–	–	–	–	–	–	–	–	–	–	0.947	0.689	0.743	0.753	0.75
NCI-H358	–	0.54	0.443	0.557	0.354	0.208	0.196	0.181	0.156	0.18	–	0.125	0.115	0.14	0.191	–	0.533	0.564	0.523	0.618
SK-LU-1	–	–	–	–	–	0.634	0.663	0.58	0.583	0.485	0.385	0.374	0.422	0.434	0.341	1.15	0.924	1.07	0.848	0.803
LCLC-97TM1	–	0.267	0.205	0.162	0.188	0.205	0.206	0.237	0.208	0.194	–	0.226	0.23	0.223	0.229	0.248	0.349	0.354	–	0.234
NCI-H322M	–	–	0.579	0.668	0.491	–	0.608	0.682	0.656	0.655	–	–	0.513	0.435	0.48	0.895	0.83	0.948	0.919	0.945
EMC-BAC-2	0.878	–	1.22	1.11	1	0.997	–	0.936	0.874	0.984	0.401	–	0.528	0.511	0.459	0.771	0.649	0.754	0.737	0.779
NCI-H1355	0.392	0.817	0.745	0.761	0.574	0.388	0.29	0.371	0.328	0.325	0.382	0.471	0.425	0.413	0.411	–	1.03	0.996	0.986	0.955
Calu-6	–	–	–	–	–	–	–	–	–	–	–	–	–	–	–	0.817	0.735	0.882	0.691	0.796
NCI-H661	–	–	–	–	–	0.555	0.545	0.481	0.424	0.443	–	0.406	0.403	0.422	0.353	0.91	0.884	0.909	0.885	0.963
NCI-H1975	0.655	0.766	0.775	0.768	0.576	0.392	0.447	0.362	0.307	0.328	0.347	0.627	0.604	0.665	0.537	0.964	1.12	0.977	0.93	0.89
COR-L23	–	–	–	–	–	0.406	0.315	0.255	0.287	0.289	0.23	0.323	0.316	0.29	0.26	0.637	0.605	0.718	0.584	0.651
HCC-15	1.3	1.19	1.23	1.58	1.1	0.572	0.56	0.589	0.562	0.502	0.712	0.716	0.733	0.745	0.739	0.803	0.86	0.847	0.752	0.825
NCI-H1651	0.414	0.437	0.394	0.406	0.369	0.549	0.43	0.348	0.358	0.32	0.476	0.519	0.525	0.51	0.531	0.926	0.853	0.805	0.799	0.83
CAL-12T	0.572	0.537	0.647	0.675	0.589	–	–	–	–	–	0.424	0.517	0.585	0.325	0.566	0.702	0.542	0.589	0.616	0.645

Cell Line	relative viability ([1]; first compound 0.08 µM)	relative viability ([1]; first compound 0.253 µM)	relative viability ([1]; first compound 0.8 µM)	relative viability ([1]; first compound 2.53 µM)	relative viability ([1]; first compound 8 µM)	relative viability ([2]; first compound 0.02 µM)	relative viability ([2]; first compound 0.06325 µM)	relative viability ([2]; first compound 0.2 µM)	relative viability ([2]; first compound 0.6325 µM)	relative viability ([2]; first compound 2 µM)	relative viability ([3]; first compound 0.08 µM)	relative viability ([3]; first compound 0.253 µM)	relative viability ([3]; first compound 0.8 µM)	relative viability ([3]; first compound 2.53 µM)	relative viability ([3]; first compound 8 µM)	relative viability ([4]; first compound 0.02 µM)	relative viability ([4]; first compound 0.06325 µM)	relative viability ([4]; first compound 0.2 µM)	relative viability ([4]; first compound 0.6325 µM)	relative viability ([4]; first compound 2 µM)
LK-2	–	0.439	0.45	0.352	0.375	0.259	0.278	0.273	0.283	0.225	–	0.821	0.832	0.582	0.699	–	0.179	0.149	0.232	0.183
NCI-H1703	0.176	0.167	0.146	0.123	0.121	–	–	–	–	–	–	–	–	–	–	0.835	0.76	1.06	0.778	0.75
H3255	0.925	0.774	0.831	0.843	0.744	0.615	0.538	0.713	0.567	0.589	0.301	0.304	0.316	0.311	0.32	0.898	0.904	0.814	0.829	0.969
NCI-H727	0.653	0.538	0.57	0.503	0.654	0.865	0.758	0.856	0.706	0.865	0.61	0.631	0.698	0.644	0.601	0.814	0.685	0.855	0.668	0.764
NCI-H2405	0.706	–	0.85	0.796	0.505	0.742	–	0.653	0.663	0.693	0.476	–	0.55	0.513	0.481	0.845	0.788	0.802	0.815	0.909
NCI-H520	–	–	–	–	–	0.427	0.404	0.414	0.375	0.35	0.197	0.194	0.208	0.214	0.195	0.808	0.698	0.697	0.713	0.836
NCI-H1648	0.523	0.584	0.723	0.447	0.525	0.487	–	–	0.529	0.424	0.254	0.309	0.298	0.277	0.269	–	–	–	–	–
EBC-1	–	–	–	–	–	–	–	–	–	–	–	–	–	–	–	0.194	0.231	0.213	0.186	0.233
NCI-H1395	–	0.394	0.382	0.398	0.397	0.704	0.626	0.686	0.606	0.652	–	0.632	0.709	0.6	0.563	–	–	–	–	–
COR-L 105	–	–	–	–	–	0.634	0.66	0.744	0.59	0.599	0.33	0.435	0.449	0.416	0.397	0.881	0.583	0.921	0.786	0.696
SK-MES-1	–	–	–	–	–	0.364	0.293	0.341	0.324	0.337	0.357	0.324	0.299	0.287	0.31	0.973	0.901	0.951	0.854	0.956
A549	–	–	–	–	–	0.202	0.137	0.0868	0.106	0.0789	–	–	–	–	–	0.768	0.699	0.792	0.61	0.891
NCI-H1793	–	0.726	0.444	0.557	0.406	0.511	0.47	0.445	0.429	0.424	–	0.344	0.324	0.32	0.248	–	–	–	–	–
NCI-H596	1.12	1.18	1.07	1.19	0.937	1.14	1	0.969	0.814	0.965	–	–	–	–	–	1.05	0.912	1.06	0.862	0.957
SW 900	0.646	0.596	0.579	0.597	0.403	–	0.377	0.396	0.427	0.388	0.491	0.564	0.565	0.525	0.51	–	–	–	–	–
NCI-H1650	–	–	–	–	–	0.256	0.326	0.433	0.43	0.308	0.355	0.341	0.354	0.426	0.351	–	0.899	1.11	0.81	0.919
NCI-H1299	–	–	–	–	–	–	–	–	–	–	–	–	–	–	–	1.04	0.945	0.95	0.928	0.948
NCI-H2023	–	–	–	–	–	0.215	0.152	0.172	0.141	0.13	0.36	0.355	0.433	0.359	0.365	0.567	0.616	0.635	0.567	0.601
UMC-11	–	–	–	–	–	0.568	0.568	0.476	0.444	0.389	–	0.361	0.29	0.331	0.343	0.549	0.654	0.595	0.547	0.577
NCI-H1563	–	–	–	–	–	–	–	–	–	–	–	–	–	–	–	0.91	0.762	0.89	0.857	0.808
NCI-H522	–	0.792	1.06	0.951	0.612	0.663	0.561	0.547	0.622	0.678	–	0.944	0.972	0.999	0.955	–	–	–	–	–
